Laboratory results from patent US20200237731A1, “USE OF CLOXACILLIN TO INHIBIT/PREVENT BIOFILM FORMATION” (priority 2017, published 2020).
Entries after “also recorded” stand apart in the source; their conditions may differ.

Legend:
[1] = tested on: clinical strains of Staphylococcus aureus; experiment: MIC of cloxacillin by growth (absorbance) in 96-well microplates, Mueller-Hinton medium; assay type: cell-based; details: for MIC: Staphylococcus aureus, read-out: MH MIC
Method: (§1) The determination of each minimum inhibitory concentration (MIC) of cloxacillin was measured conventionally by measuring the growth of each strain in 96-well microplates in the presence of concentrations of antibiotic by absorbance.
(§2) The MIC was measured in Mueller-Hinton medium (MH; reference medium for antibiotic susceptibility testing) and brain heart infusion (BHI) medium.

[2] = tested on: clinical strains of Staphylococcus aureus; experiment: MIC of cloxacillin by growth (absorbance) in 96-well microplates, brain heart infusion (BHI) medium; assay type: cell-based
Method: as §1, §2

[3] = tested on: Staphylococcus aureus strains S14 and S39; experiment: Confocal microscopy of bacterial adhesion to polystyrene well bottom; assay type: cell-based; details: for effect on adhesion / biofilm formation / effect on bacterial adhesion: 4 h; for effect on bacterial adhesion: strain S39
Method: Six-well polystyrene microplates of the same nature and with exactly the same properties as the microplates used in Example 1 (Antibiofilmogram®), i.e. Costar 6-well microplates, product code 3736. The 6-well microplates were used to obtain a sufficient surface area of biofilm formation for confocal microscopy observation. The concentrations corresponding to the MIC and MICb of the strains were tested. At the same time, controls in the absence of antibiotics, strains S14 and S39 were performed. After incubation for 4 h at 37° C. (similar to the conditions used in Example 1 (Antibiofilmogram®), the bottoms of the microplates were cut out and assembled with a glass slide in order to be able to proceed to the observation under confocal microscopy. The observation conditions were as follows: Objective: ×40; Zoom: ×2; Format: 2048×2048 pixels; Laser power; Zmax and Zmin: number of images in the stack; Size between each image: 0.42 μm. “Live/Dead” staining was performed. SYTO9 stains live (and dead) bacteria, while propidium iodide specifically stains dead bacteria. The result was obtained with an analysis of 2880 images (“Slices”).
The percentage of biofilm covering the bottom surface of the well bottom as a percentage of surface cover is shown on the vertical axis. In FIG. 2A, the density of S14 bacteria adhered to the bottom of the wells was shown and analyzed. […] In particular, from 10% to more than 20% of the bottom surface of the well was covered after 4 h of incubation, which is excessive to consider a use in a therapeutic treatment at this dose.

[4] = tested on: Staphylococcus aureus strains S14 and S39; experiment: Implanted subcutaneous catheter infection model in mice; assay type: in vivo; details: 12 h, 24 h and 30 h

Cc1onc(-c2ccccc2Cl)c1C(=O)N[C@@H]1C(=O)N2[C@@H]1SC(C)(C)[C@@H]2C(=O)O [cloxacillin]
MIC ([1]; strain S02): 0.125 µg/mL
MIC ([1]; strain S04): 0.25 µg/mL
MIC ([1]; strain S08): 0.25 µg/mL
MIC ([1]; strain S11): 0.5 µg/mL
MIC ([1]; strain S14): 0.25 µg/mL
MIC ([1]; strain S16): 0.25 µg/mL
MIC ([1]; strain S19): 0.5 µg/mL
MIC ([1]; strain S21): 0.25 µg/mL
MIC ([1]; strain S22): 0.5 µg/mL
MIC ([1]; strain S26): 0.25 µg/mL
MIC ([1]; strain S27): 0.25 µg/mL
MIC ([1]; strain S31): 0.25 µg/mL
MIC ([1]; strain S34): 0.5 µg/mL
MIC ([1]; strain S38): 0.5 µg/mL
MIC ([1]; strain S39): 0.5 µg/mL
MIC ([1]; strain S40): 0.5 µg/mL
MIC ([1]; strain S43): 0.25 µg/mL
MIC ([1]; strain S44): 0.25 µg/mL
MIC ([1]; strain S46): 0.25 µg/mL
MIC ([1]; strain S47): 0.25 µg/mL
MIC ([1]; strain S51): 0.25 µg/mL
MIC ([1]; strain S58): 0.25 µg/mL
MIC ([1]; strain S62): 0.25 µg/mL
MIC ([1]; strain S63): 0.25 µg/mL
MIC ([1]; strain S74): 0.25 µg/mL
MIC ([1]; strain S83): 0.125 µg/mL
MH MIC ([1]; strain S02): 0.125 µg/mL
MH MIC ([1]; strain S38): 0.5 µg/mL
MH MIC ([1]; strain S58): 0.25 µg/mL
MH MIC ([1]; strain S83): 0.125 µg/mL
MIC ([2]; strain S02): 0.25 µg/mL
MIC ([2]; strain S04): 0.5 µg/mL
MIC ([2]; strain S08): 0.5 µg/mL
MIC ([2]; strain S11): 0.5 µg/mL
MIC ([2]; strain S14): 0.25 µg/mL
MIC ([2]; strain S16): 0.5 µg/mL
MIC ([2]; strain S19): 0.5 µg/mL
MIC ([2]; strain S21): 0.5 µg/mL
MIC ([2]; strain S22): 0.5 µg/mL
MIC ([2]; strain S26): 0.25 µg/mL
MIC ([2]; strain S27): 0.25 µg/mL
MIC ([2]; strain S31): 0.5 µg/mL
MIC ([2]; strain S34): 0.5 µg/mL
MIC ([2]; strain S38): 0.5 µg/mL
MIC ([2]; strain S39): 0.125 µg/mL
MIC ([2]; strain S40): 0.5 µg/mL
MIC ([2]; strain S43): 0.25 µg/mL
MIC ([2]; strain S44): 0.5 µg/mL
MIC ([2]; strain S46): 0.125 µg/mL
MIC ([2]; strain S47): 0.25 µg/mL
MIC ([2]; strain S51): 0.25 µg/mL
MIC ([2]; strain S58): 0.25 µg/mL
MIC ([2]; strain S62): 0.5 µg/mL
MIC ([2]; strain S63): 0.25 µg/mL
MIC ([2]; strain S74): 0.25 µg/mL
MIC ([2]; strain S83): 0.125 µg/mL
effect on adhesion / biofilm formation ([3]; strain S14, MIC dose (0.25 μg/mL)): allows a decrease in bacterial adhesion but does not inhibit it; also recorded: did not inhibit the adhesion
bottom surface of the well covered by bacteria ([3]; strain S14, MIC dose (0.25 μg/mL), 4 h incubation): 10%
effect on adhesion / biofilm formation ([3]; strain S14, MICb dose (2 μg/mL)): completely inhibit the adhesion
effect on adhesion / biofilm formation ([3]; strain S14, sub-MIC dose (0.125 μg/mL, 0.5 MIC)): no effect on biofilm formation; also recorded: did not inhibit the adhesion
effect on adhesion / biofilm formation ([3]; strain S14, sub-MICb dose (1 μg/mL)): completely inhibit the adhesion
effect on bacterial adhesion ([3]; MIC dose (0.125 μg/mL)): no effect on bacterial adhesion
effect on bacterial adhesion ([3]; MICb dose (6 μg/mL)): completely inhibit the adhesion
effect on bacterial adhesion ([3]; sub-MIC dose (1/2 MIC)): no effect on bacterial adhesion
effect on bacterial adhesion ([3]; sub-MICb dose (3 μg/mL)): completely inhibit the adhesion
bacteria attached to the implanted catheter (log CFU/g catheter) vs control ([4]; strain S14, MIC dose (5 mg/kg pre-infection, then 3 mg/kg every 2 h for 10 h, intraperitoneal)): ineffectiveness
bacteria attached to the implanted catheter (log CFU/g catheter) vs control ([4]; strain S14, MICb dose (30 mg/kg pre-infection, then 15 mg/kg every 2 h for 10 h, intraperitoneal)): statistically significant difference from control (***)
bacteria attached to the implanted catheter (log CFU/g catheter) vs control ([4]; strain S39, MIC dose (7 mg/kg pre-infection, then 4 mg/kg every 2 h for 10 h, intraperitoneal)): ineffectiveness
bacteria attached to the implanted catheter (log CFU/g catheter) vs control ([4]; strain S39, MICb dose (45 mg/kg pre-infection, then 25 mg/kg every 2 h for 10 h, intraperitoneal)): statistically significant difference from control (***)
